The test system of series [1] is peritoneum. As to conditions: rats, chronic peritoneal dialysis; cited from earlier work.
Series [2] deals with cultured cells. The series is described as follows: in vitro inhibition of cell growth (ICG) in cultured cells. The series is classed as cell-based. An excerpt: Experiments in which measurements of the percentage of inhibition of cell growth (ICG) and fluorescence have been made at varying pH values and NAG concentrations during terminal heat sterilisation are illustrated in FIGS. 1-3. The results of the experiments imply that the pH of the amino sugar containing solution should be decreased from the neutral level and that, in a preferred embodiment of the invention, also the concentration of the amino sugar/sugars should be optimised.
(§1) A simple, reliable and known way to study the cytotoxicity of substances or of medical fluids is to test proliferation as in vitro inhibition of cell growth (ICG) in cultured cells. Another method to get a rough estimation of the amount of amino sugars that is rearranged is measurement of the fluorescence.

A short description of series [3]: degradation during heat sterilisation (pH change, HPLC of 3-DG and 3,4-DGE). The series is classed as physicochemical. An excerpt:
NAG and other amino sugars have a major difference from glucose and glucose-like compounds by having one amino group and possibly an acetyl group coupled to the glucose ring. […] It should be noted that the decomposition pattern for an amino sugar solution during heat sterilisation follows specific Maillard reactions giving several different toxic decomposition products. The decomposition pattern differs for e.g. a glucose solution during heat sterilisation, wherein different decomposition products are formed. This difference is illustrated in FIGS. 4a-4d, showing chromatograms when analysing 3-DG and 3,4-DGE in a NAG solution and in a glucose solution, respectively. The difference in degradation is likely due to that the NAG molecules contains groups that allows the Maillard reaction to take place and therefore create a large number of degradation products not seen in a glucose solution.

Series [4] deals with human peritoneal mesothelial cells and fibroblasts. Particulars: cited from earlier work.
Series [5] in a line: fluorescence of heat sterilised NAG containing solutions. The series is classed as physicochemical. As to conditions: terminally heat sterilised solution, excitation 350 nm, emission 430 nm, FIG. 3.
From the text: as §1

Take hyaluronan [reference compound]: in series [1], the “effect on the peritoneum of a supplemented dialysis solution” value is “function of the peritoneum as a dialysis membrane is better preserved”.

In the case of `CC(=O)N[C@H]1C(O)O[C@H](CO)[C@@H](O)[C@@H]1O` (stereo partly shown) [NAG, N-acetylglucosamine], the “percentage inhibition of cell growth, effect of NAG concentration” value in series [2] (NAG 30% vs 1.5% during terminal heat sterilisation, all three pH values, FIG. 2) was “lower after a terminal heat sterilisation at a NAG concentration of 30% than at a NAG concentration of 1.5%”. Moreover, in series [2] (conventional medical solutions), the “cytotoxicity after heat sterilisation” value is reported as “increased cytotoxicity after heat sterilisation”. Besides, in series [2] (solution containing 1.5% NAG, FIG. 1), the “pH of sterilisation at which inhibition of cell growth reaches a minimum” value is on record as 2.5-3.5. The “percentage inhibition of cell growth, effect of pH” value in series [2] (terminal heat sterilisation at pH 3.0, 5.5 and 7.2, FIG. 2) is “lower after terminal heat sterilisation at a pH of 3.0 than at a pH of 5.5 and 7.2”. In addition, in series [3], the “change of pH of the solution during sterilisation” value is given as “increases during sterilisation”. For the same compound, the “known glucose degradation products in heat sterilised solution” value in series [3] (heat sterilised NAG solutions) was “none of the known glucose degradation products has been found”. Also, in series [4], the “production of hyaluronan and sulphated glycosaminoglycans” value is “rapidly stimulates the production of hyaluronan and sulphated glycosaminoglycans”. The “effect on the peritoneum of a supplemented dialysis solution” value in series [1] is on record as “causes accumulation of glucosaminoglycans in the peritoneal interstitium, resulting in a favorable change of the peritoneal permeability”. In series [5], the “pH at which the lowest fluorescence is seen” value is ~4.

The record behind these values is patent US9918999B2, “Method for preparing a medical solution for the manufacture of a medicament for peritoneal dialysis” (FRESENIUS MEDICAL CARE DEUTSCHLAND GMBH, priority 2002, dated 2018).
